Like-named read-outs stand apart in the source and are kept apart here.
Key:
GRK5 = biological target: T1, GRK5 (Homo sapiens, UniProt P34947); experiment: Differential scanning fluorimetry thermal shift assay; format: binding; conditions: for effect of salt on Tm of ATP·Mg2+-bound GRK5 / effect of salt on Tm of GRK5: increasing salt concentrations; for effect of salt on Tm of GRK5: no ligand; for increase of Tm of GRK5 upon ligand binding: relative to unliganded GRK5, ligand 5 mM, 2 μM GRK5
T1 construct: human GRK5WT or GRK5D311N (residues 1–590 followed by a hexahistidine tag); hexahistidine (C); made in house; host or cells: E. coli Rosetta (DE3)
Description: Samples were mixed with Protein Thermal Shift dye to measure unfolding as a function of temperature. The Tm values were subtracted by the Tm of GRK5 in the same condition without the addition of salt to obtain ΔTm. Error bars correspond to SD (box) from three or more replicates (circles). […] Orange corresponds to GRK5 with Sgv and pink with AMP in buffer alone (20 mM Hepes [pH 7.2], 2 mM MgCl2). A one-tailed t test was used to determine significance (ns: p > 0.05, ∗p ≤ 0.05, ∗∗p ≤ 0.01, ∗∗∗p ≤ 0.001, and ∗∗∗∗p ≤ 0.0001). GRK, G protein–coupled receptor kinase; ns, not significant; Sgv, sangivamycin.
Full-length WT GRK5, GRK2, or GRK6 at a final concentration of 2 μM in the absence or the presence of different ligands were mixed with the Protein Thermal Shift Dye at a final concentration of 1X in buffer containing 20 mM Hepes (pH 7.2), 2 mM MgCl2, and 1 mM TCEP in addition to different concentrations of salts. The melting points were measured using a QuantStudio5 Real-Time PCR System in a 384-well transparent plate with a final reaction volume of 10 μl per well. […] Ligands including ATP, AMP–PNP, ADP, AMP, and Sgv were added at a final concentration of 5 mM. Readouts were measured and analyzed with Protein Thermal Shift Software to obtain Boltzmann Tm values. At least three replicates of individual runs from the same preparation of protein were performed to obtain the mean and standard deviation of Tm values.

human GRK5WT = biological target: T2, human GRK5WT (Homo sapiens, UniProt P34947); experiment: GRK kinase inhibition assay ([γ-32P]-ATP phosphorylation of tubulin or Rho*); format: biochemical; conditions: for change in inhibition potency caused by K3Cit: GRK5 phosphorylation of tubulin and Rho*
T2 construct: human GRK5WT or GRK5D311N (residues 1–590 followed by a hexahistidine tag); hexahistidine (C); made in house; host or cells: E. coli Rosetta (DE3)
Description: GRK inhibition assays were performed in 20 mM Hepes (pH 7.0), 2 mM MgCl2, 0.025% n-dodecyl-β-D-maltoside with 50 nM human GRK5WT as purified previously. […] A range of salt concentrations was added 30 s prior to 5 min reactions initiated by exposing samples to light followed by addition of 5 μM ATP supplemented with radioactive [γ-^32P]-ATP at 60 Ci/mmol (PerkinElmer Life Sciences) at room temperature. […] Reactions were quenched with 4X SDS loading buffer, separated in SDS-PAGE, dried, and read by phosphorimaging and then quantified via a Personal Molecular Imager and Quantity One 1-D Analysis Software. […] At least three replicates were obtained to calculate the mean and standard deviation of IC50 values. See Figure S4 for representative raw and processed data.

GRK6 = biological target: T3, GRK6 (Homo sapiens, UniProt P43250, C561S/C562S/C565S); experiment: GRK kinase inhibition assay ([γ-32P]-ATP phosphorylation of tubulin); format: biochemical; conditions: substrate tubulin; for IC50: mean ± SD
T3 construct: Full-length WT GRK5, GRK2, or GRK6 at a final concentration of 2 μM; made in house; host or cells: Sf9 insect cells

GRK2 = biological target: T4, GRK2 (Homo sapiens, UniProt P25098, S670A); experiment: as above; format: biochemical; conditions: substrate tubulin; for IC50: mean ± SD
T4 construct: Full-length WT GRK5, GRK2, or GRK6 at a final concentration of 2 μM; made in house; host or cells: Sf9 insect cells
T4 sequence (P25098 1-689 S670A): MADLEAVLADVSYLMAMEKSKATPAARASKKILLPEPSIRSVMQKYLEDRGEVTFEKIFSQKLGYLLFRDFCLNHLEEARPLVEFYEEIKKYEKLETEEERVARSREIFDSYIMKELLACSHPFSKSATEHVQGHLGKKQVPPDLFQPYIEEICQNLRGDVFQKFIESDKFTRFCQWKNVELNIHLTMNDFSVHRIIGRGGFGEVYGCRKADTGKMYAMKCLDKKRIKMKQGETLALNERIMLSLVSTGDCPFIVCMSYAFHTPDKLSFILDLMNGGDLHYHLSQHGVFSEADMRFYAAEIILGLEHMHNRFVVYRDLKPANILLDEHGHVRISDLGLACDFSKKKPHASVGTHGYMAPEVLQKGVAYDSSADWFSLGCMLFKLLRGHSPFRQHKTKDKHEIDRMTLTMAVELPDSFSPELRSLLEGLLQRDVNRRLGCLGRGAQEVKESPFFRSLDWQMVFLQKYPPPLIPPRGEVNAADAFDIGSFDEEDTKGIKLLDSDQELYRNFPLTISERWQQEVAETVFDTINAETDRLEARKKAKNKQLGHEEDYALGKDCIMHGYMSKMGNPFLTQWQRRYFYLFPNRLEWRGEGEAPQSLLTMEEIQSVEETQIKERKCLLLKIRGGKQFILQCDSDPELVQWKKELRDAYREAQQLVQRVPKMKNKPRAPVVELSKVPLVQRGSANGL
Description: Following the protocol in Ref. ([19]), pMAL-vector plasmids bearing DNA encoding human GRK5WT or GRK5D311N (residues 1–590 followed by a hexahistidine tag) were transfected into E. coli Rosetta (DE3) and induced with isopropyl β-D-1-thiogalactopyranoside. Cells lysed using an Emulsiflex-C3 were treated with DNase I and 1 mM MgCl2 at room temperature for 10 min before centrifugation at 40,000g. GRK5 in the soluble fraction was then loaded onto a Ni^2+–NTA column for metal-affinity purification. Eluted GRK5 fractions were then loaded onto a tandem HiTrap Q HP-HiTrap SP HP column to capture impurities in the Q HP column, and GRK5 was eluted from the SP column using an NaCl concentration gradient from 100 to 600 mM. […] Purified GRK5 was used directly in crystallization or flash-frozen with liquid nitrogen and stored at −80 °C for later usage. Human GRK2S670A and GRK6FL_pal(−) are expressed in Sf9 insect cells and purified as described previously ([26], [31]). The S670A mutation in GRK2 eliminates a heterogenous mitogen-activated kinase phosphorylation site, and GRK6FL_pal(−) was used to remove palmitoylation sites in order to make expression and purification easier.
GRK inhibition assays were performed in 20 mM Hepes (pH 7.0), 2 mM MgCl2, 0.025% n-dodecyl-β-D-maltoside with 50 nM human GRK5WT as purified previously. […] A range of salt concentrations was added 30 s prior to 5 min reactions initiated by exposing samples to light followed by addition of 5 μM ATP supplemented with radioactive [γ-^32P]-ATP at 60 Ci/mmol (PerkinElmer Life Sciences) at room temperature. […] Reactions were quenched with 4X SDS loading buffer, separated in SDS-PAGE, dried, and read by phosphorimaging and then quantified via a Personal Molecular Imager and Quantity One 1-D Analysis Software. Data were analyzed via GraphPad Prism (GraphPad Software, Inc), and three-parameter dose-dependent curves (Hill coefficient = −1) plotting phosphate transferred against inhibitor concentration were used for the calculation of IC50 values. At least three replicates were obtained to calculate the mean and standard deviation of IC50 values. See Figure S4 for representative raw and processed data.

[1] = IC50 no K3Cit vs with 2 mM K3Cit, substrate tubulin
[2] = IC50 no K3Cit vs with 6 mM K3Cit, substrate Rho* in ROS
[3] = read-out: IC50 (no K3Cit), substrate Rho* in ROS, without K3Cit, mean and SD
[4] = read-out: IC50 (no K3Cit), substrate tubulin, without K3Cit, mean and SD

T3 sequence (P43250 whole entry C561S/C562S/C565S): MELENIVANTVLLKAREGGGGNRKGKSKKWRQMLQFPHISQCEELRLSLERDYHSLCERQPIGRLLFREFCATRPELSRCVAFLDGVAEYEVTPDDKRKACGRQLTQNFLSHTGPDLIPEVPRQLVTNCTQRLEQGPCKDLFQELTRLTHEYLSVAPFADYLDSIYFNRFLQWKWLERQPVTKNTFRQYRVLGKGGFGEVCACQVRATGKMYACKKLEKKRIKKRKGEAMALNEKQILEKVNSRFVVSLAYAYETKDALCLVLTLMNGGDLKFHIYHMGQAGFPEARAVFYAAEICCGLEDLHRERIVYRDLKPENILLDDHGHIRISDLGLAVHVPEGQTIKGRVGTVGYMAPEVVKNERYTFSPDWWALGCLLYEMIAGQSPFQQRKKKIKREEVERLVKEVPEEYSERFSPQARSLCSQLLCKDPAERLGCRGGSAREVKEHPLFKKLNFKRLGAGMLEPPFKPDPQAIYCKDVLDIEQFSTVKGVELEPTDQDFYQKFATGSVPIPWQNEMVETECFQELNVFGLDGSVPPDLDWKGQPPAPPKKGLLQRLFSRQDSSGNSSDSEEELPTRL
T1 sequence (P34947 whole entry, the tested form may be a part): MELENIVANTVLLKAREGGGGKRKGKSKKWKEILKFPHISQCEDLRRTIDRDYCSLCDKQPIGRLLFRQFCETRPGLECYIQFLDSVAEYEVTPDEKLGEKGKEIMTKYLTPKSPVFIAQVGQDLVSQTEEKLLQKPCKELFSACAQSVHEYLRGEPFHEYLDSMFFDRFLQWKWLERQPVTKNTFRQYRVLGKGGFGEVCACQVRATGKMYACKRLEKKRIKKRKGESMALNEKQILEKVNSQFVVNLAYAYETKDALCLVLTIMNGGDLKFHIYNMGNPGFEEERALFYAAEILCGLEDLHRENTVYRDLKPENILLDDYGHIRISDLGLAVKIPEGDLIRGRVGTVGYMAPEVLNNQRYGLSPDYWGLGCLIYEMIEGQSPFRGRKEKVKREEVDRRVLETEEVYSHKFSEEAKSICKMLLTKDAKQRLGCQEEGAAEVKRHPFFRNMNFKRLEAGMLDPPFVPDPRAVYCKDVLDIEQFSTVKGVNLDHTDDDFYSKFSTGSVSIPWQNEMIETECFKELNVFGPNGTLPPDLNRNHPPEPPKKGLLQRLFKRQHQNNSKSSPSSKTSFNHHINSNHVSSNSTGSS
T2 sequence (P34947 whole entry, the tested form may be a part): as above

SMILES | effect of salt on Tm of ATP·Mg2+-bound GRK5 (GRK5; in the presence of ATP·Mg2+) | effect of salt on Tm of GRK5 (GRK5) | GRK6 (Hill slope) (GRK6) | IC50 (GRK6) | GRK2 (Hill slope) (GRK2) | IC50 (GRK2) | Fold-change (human GRK5WT; [1]) | Fold-change (human GRK5WT; [2]) | increase of Tm of GRK5 upon ligand binding (GRK5) | other results
[Cl-].[K+] [KCl] | decreased | did not increase GRK5 stability at any concentration | −2.3 | 14000 ± 4000 µM | −1.6 | 20000 ± 2000 µM |  |  |  | lower potency than the corresponding citrate salts (human GRK5WT; GRK5, tubulin as the substrate): about 35 fold; GRK5 (Hill slope) (human GRK5WT; substrate Rho* (LMNG)): −1.6; IC50 (human GRK5WT; substrate Rho* (LMNG), mean ± SD, read-out: GRK5 IC50): 11000 ± 2000 µM; GRK5 (Hill slope) (human GRK5WT; substrate Rho* (ROS)): −1.9; IC50 (human GRK5WT; substrate Rho* (ROS), mean ± SD, read-out: GRK5 IC50): 18000 ± 10000 µM; GRK5 (Hill slope) (human GRK5WT; substrate tubulin): −1.7; IC50 (human GRK5WT; substrate tubulin, mean ± SD, read-out: GRK5 IC50): 55000 ± 6000 µM
O=C([O-])CC(O)(CC(=O)[O-])C(=O)[O-].[Na+].[Na+].[Na+] [Na3Cit, sodium citrate] |  |  | −1.2 | 1300 ± 900 µM | −1.6 | 700 ± 200 µM |  |  |  | 
O.O=C([O-])CC(O)(CC(=O)[O-])C(=O)[O-].[K+].[K+].[K+] [K3Cit, potassium citrate tribasic monohydrate] | biphasic behavior | raised the Tm of GRK5 proportionally | −0.9 | 900 ± 500 µM | −1.3 | 800 ± 500 µM |  |  |  | decrease of Tm of GRK5 (GRK5; in the presence of ATP·Mg2+, 20 mM K3Cit): 2 to 3 °C; effect of salt on Tm of Sgv-bound GRK5 (GRK5; in the presence of Sgv): further increased
Nc1ncnc2c1ncn2[C@@H]1O[C@H](COP(=O)(O)OP(=O)(O)O)[C@@H](O)[C@H]1O [ADP] |  |  |  |  |  |  | 3 | 1.5 |  | change in inhibition potency caused by K3Cit (human GRK5WT): did not cause changes; IC50 (human GRK5WT; [3]): 56 ± 6 µM; IC50 (human GRK5WT; [4]): 28 ± 1 µM
Nc1ncnc2c1ncn2[C@@H]1O[C@H](COP(=O)(O)OP(=O)([O-])OP(=O)([O-])O)[C@@H](O)[C@H]1O.[Mg+2] [ATP·Mg^2+] |  |  |  |  |  |  |  |  | 9 °C | 
NC(=O)c1cn([C@@H]2O[C@H](CO)[C@@H](O)[C@H]2O)c2ncnc(N)c12 [Sgv, sangivamycin] |  |  |  |  |  |  | 8 | 6 | 5 °C | reduction of the apparent IC50 by K3Cit (human GRK5WT; GRK5 phosphorylation of tubulin, 2 mM K3Cit): eightfold; IC50 (human GRK5WT; IC50 (no K3Cit), substrate Rho* in ROS, without K3Cit, mean and SD): 4.5 ± 0.5 µM; IC50 (human GRK5WT; IC50 (no K3Cit), substrate tubulin, without K3Cit, mean and SD): 11 ± 3 µM; increase of potency of inhibition by K3Cit (human GRK5WT; tubulin and receptor Rho* phosphorylation): ~8 fold
Nc1ncnc2c1ncn2[C@@H]1O[C@H](COP(=O)(O)O)[C@@H](O)[C@H]1O [AMP] |  |  |  |  |  |  | 1.5 | 2 | does not stabilize GRK5 as much as Sgv | change in inhibition potency caused by K3Cit (human GRK5WT): did not cause changes; IC50 (human GRK5WT; [3]): 1000 ± 100 µM; IC50 (human GRK5WT; [4]): 700 ± 200 µM
[Cl-].[Na+] [NaCl] | decreased | reduced it | −1.3 | 8000 ± 7000 µM | −1.2 | 21000 ± 2000 µM |  |  |  | 

From publication PMC12268638, “Structural insights into the catalytic cycle of G protein–coupled receptor kinase 5 and a possible regulatory site for potassium ion” (The Journal of Biological Chemistry, 2025)
